Literature values in patent US4123523A, “Analgesic and sedative polypeptides” (Imperial Chemical Industries Limited, priority 1976, dated 1978).

Tested on: cat
Conditions: injected directly into the third ventricle of the cat

Question: With “β-endorphin: residues 61-91 of the naturally-occuring lipolytic polypeptide hormone lipotropin (YGGFMTSEKSQTPLVTLFKNAIIKNAYKKGE; Beta-endorphin; UniProt P01189 237-267, looked up)” as the substance, how does the analgesic properties read?
Answer: possesses analgesic properties
